These results are taken from patent US8557816B2, “Aurora kinase modulators and method of use” (Amgen Inc., priority 2007, dated 2013).

A value given as a limit tells only on which side of the number the result lay.

The target in one assay is T1, AuroraB (Homo sapiens, UniProt Q96GD4).
T1 construct: 20 μL of AuroraB FL H is for a final volume of 41 μL; His
Put plainly: AuroraB Homogeneous Time Resolved Fluorescent (HTRF) kinase assay. The class given is biochemical. The following applies: average; read-out: AurB_IC50_IP (uM Avg). In outline: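 Read-out is time-resolved FRET between europium anti-phospho-H3 antibody and streptavidin-APC, added in EDTA buffer to stop the reaction and equilibrated about 60 min (ex 320, em 615 and 655 nm). Preceding reaction: ~90 min, full-length enzyme, ATP, 0.1 μM biotin-Histone H3 substrate, Mg/Mn HEPES buffer pH 7.5.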

Another assay concerns the target T2, AuroraA-TPX2 (Homo sapiens, UniProt O14965).
T2 construct: 20 μL of AuroraA-TPX2 KD GST for a final volume of about 41 μL; GST
T2 sequence (O14965 133-383 limits assumed): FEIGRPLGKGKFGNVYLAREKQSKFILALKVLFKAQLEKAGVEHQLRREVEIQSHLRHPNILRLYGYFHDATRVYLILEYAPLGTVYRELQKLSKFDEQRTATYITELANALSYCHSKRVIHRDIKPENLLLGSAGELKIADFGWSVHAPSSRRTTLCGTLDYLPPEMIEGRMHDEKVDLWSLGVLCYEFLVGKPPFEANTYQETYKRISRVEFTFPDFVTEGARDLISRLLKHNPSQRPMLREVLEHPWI
T2 sequence (Q9ULW0 1-43 partner limits assumed): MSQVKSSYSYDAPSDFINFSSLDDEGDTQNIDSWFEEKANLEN
As to the kind of experiment: AuroraA-TPX2 Homogeneous Time Resolved Fluorescent (HTRF) kinase assay. The class given is biochemical. Particulars: average; read-out: AurA_IC50_IP (uM Avg). In outline: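 HTRF read-out (Eu 615 nm to APC 655 nm) of phosphorylated biotin-PLK, detected with 0.02 nM europium anti-phosphoPLK antibody and 0.0005 mg/mL SA-APC after overnight equilibration.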
In general terms: In TR-FRET formats the signal depends on donor and acceptor labels being close together.

T1 sequence (Q96GD4 whole entry): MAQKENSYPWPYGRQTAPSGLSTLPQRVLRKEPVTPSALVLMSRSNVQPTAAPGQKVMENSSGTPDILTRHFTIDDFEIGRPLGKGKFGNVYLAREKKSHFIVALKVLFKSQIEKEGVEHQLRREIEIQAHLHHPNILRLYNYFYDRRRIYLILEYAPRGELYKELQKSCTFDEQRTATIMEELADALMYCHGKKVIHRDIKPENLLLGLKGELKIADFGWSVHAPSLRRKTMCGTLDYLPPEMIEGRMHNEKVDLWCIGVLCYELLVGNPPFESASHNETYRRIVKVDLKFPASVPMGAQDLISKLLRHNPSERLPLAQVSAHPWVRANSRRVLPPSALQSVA

Take `COc1ccc2nccc(Sc3ccc(Nc4nnc(-c5cc(C)cs5)c5ccccc45)cc3)c2n1` [compound 549]: the results for the IC50 on AuroraB and at AuroraA-TPX2 were 0.064 µM and 0.098 µM, respectively.

For `COc1ccc2nccc(Sc3ccc(Nc4nnc(-c5ccc(Cl)cn5)c5ccccc45)cc3)c2n1` [compound 550], the IC50 turned out to be 0.022 µM on AuroraB and 0.107 µM on AuroraA-TPX2.

For the compound `COc1ccc2nccc(Oc3ccc(Nc4nnc(-c5ccc6c(c5)OCO6)c5ccccc45)cc3)c2n1` [compound 551], the figures for the IC50 at AuroraB and at AuroraA-TPX2 were 0.017 µM and 0.096 µM, respectively.

Take `COc1ccc2nccc(Oc3ccc(Nc4nnc(-c5cc(C)cs5)c5ccccc45)cc3)c2n1` [compound 552]: the IC50 at AuroraB amounted to 0.036 µM; on AuroraA-TPX2 it was 0.056 µM.

`Cc1ccc(-c2nnc(Nc3ccc(Sc4ccnc5cccnc45)cc3)c3ccccc23)cn1` [compound 553]: the IC50 at AuroraB is 0.005 µM; at AuroraA-TPX2, 0.042 µM.

Consider `COc1ccc2nccc(Oc3ccc(Nc4nnc(-c5ccc(C)cn5)c5ccccc45)cc3)c2c1` [compound 554], for which the figures for the IC50 at AuroraB and on AuroraA-TPX2 were 0.011 µM and 0.172 µM, respectively.

Turning to `COc1cnc2c(Sc3ccc(Nc4nnc(N5CCCC(C)(C)C5)c5ccccc45)cc3)ccnc2c1` [compound 555], the results for the IC50 on AuroraB and at AuroraA-TPX2 were 0.105 µM and 0.102 µM, respectively.

As for `COc1cnc2c(Sc3ccc(Nc4nnc(N5CC(C)CC(C)C5)c5ccccc45)cc3)ccnc2c1` (centres unmarked) [compound 556], the IC50 on AuroraB was found to be 0.159 µM; on AuroraA-TPX2, 0.116 µM.

For `COc1cnc2c(Sc3ccc(Nc4nnc(N5CCC(F)CC5)c5ccccc45)cc3)ccnc2c1` [compound 557], the IC50 at AuroraB was 0.059 µM; on AuroraA-TPX2, 0.161 µM.

Regarding `COc1cnc2c(Sc3ccc(Nc4nnc(C(C)C)c5ccccc45)cc3)ccnc2c1` [compound 558], the IC50 at AuroraB was found to be 0.041 µM; on AuroraA-TPX2, 0.378 µM.

For `Cc1cc2nccc(Sc3ccc(Nc4nnc(-c5ccc(Cl)cc5)c5ccccc45)cc3)c2s1` [compound 559], the IC50 on AuroraB came out at 0.098 µM; on AuroraA-TPX2, 0.168 µM.

As for `Cc1cc2nccc(Sc3ccc(Nc4nnc(-c5ccc(Cl)cn5)c5ccccc45)cc3)c2s1` [compound 560], the IC50 is 0.081 µM on AuroraB and 0.416 µM on AuroraA-TPX2.

With `c1ccc(-c2nnc(Nc3ccc(Sc4ncnc5ccccc45)cc3)c3ccccc23)cc1` [compound 561], the figures for the IC50 on AuroraB and at AuroraA-TPX2 were over 5 µM and over 25 µM, respectively.

As for `Clc1ccc(-c2nnc(Nc3ccc(Oc4ncnc5ccccc45)cc3)c3ccccc23)cc1` [compound 562], the IC50 at AuroraB came out at 0.006 µM; at AuroraA-TPX2, 0.107 µM.

For the compound `COc1cnc2c(Sc3ccc(Nc4nnc(N5CCN6CCC[C@H]6C5)c5ccccc45)cc3)ccnc2c1` [compound 563], the IC50 at AuroraB was determined as 0.009 µM; at AuroraA-TPX2, 0.023 µM.

Take `COc1ccc2ncnc(Oc3ccc(Nc4nnc(-c5ccc(Cl)cc5)c5ccccc45)cc3)c2c1` [compound 564]: the IC50 on AuroraB is 0.129 µM; at AuroraA-TPX2 it was over 25 µM.

As to `COc1ccc2ncnc(Oc3ccc(Nc4nnc(-c5cc(C)cs5)c5ccccc45)cc3)c2c1` [compound 565], the IC50 at AuroraB was determined as 0.108 µM; at AuroraA-TPX2, 0.686 µM.

Regarding `COc1cnc2c(Oc3ccc(Nc4nnc(-c5ccc(Cl)cc5)c5ccccc45)cc3OC)ccnc2c1` [compound 566], the IC50 on AuroraB turned out to be 0.043 µM; at AuroraA-TPX2 it was 0.093 µM.

With `COc1cnc2c(Oc3ccc(Nc4nnc(-c5cc(C)cs5)c5ccccc45)cc3OC)ccnc2c1` [compound 567], the values for the IC50 on AuroraB and at AuroraA-TPX2 were 0.041 µM and 0.092 µM, respectively.

Take `Cc1csc(-c2nnc(Nc3ccc(Oc4ncnc5ccccc45)cc3)c3ccccc23)c1` [compound 568]: the IC50 amounted to 0.011 µM on AuroraB and 0.233 µM at AuroraA-TPX2.

As for `O=c1ccc2nccc(Oc3ccc(Nc4nnc(-c5ccc(Cl)cc5)c5ccccc45)cc3)c2[nH]1` [compound 569], the IC50 at AuroraB was found to be 0.013 µM; at AuroraA-TPX2, 0.128 µM.

For the compound `Clc1ccc(-c2nnc(Nc3ccc(Sc4ccnc5c4CCCN5)cc3)c3ccccc23)cc1` [compound 570], the results for the IC50 at AuroraB and at AuroraA-TPX2 were 0.008 µM and 0.05 µM, respectively.

Take `FC(F)(F)Oc1ccc2nccc(Sc3ccc(Nc4nnc(-c5ccccc5)c5ccccc45)cc3)c2c1` [compound 571]: the IC50 on AuroraB and at AuroraA-TPX2 was over 25 µM each time.

`Cc1csc(-c2nnc(Nc3ccc(Sc4ccnc5ccc(OC(F)(F)F)cc45)cc3)c3ccccc23)c1` [compound 572]: the IC50 at AuroraB and on AuroraA-TPX2 was over 25 µM throughout.

Turning to `COc1cc(OC)c2c(Oc3ccc(Nc4nnc(-c5cc(C)cs5)c5ccccc45)cc3)ncnc2c1` [compound 573], the IC50 was found to be 0.114 µM at AuroraB and 0.042 µM at AuroraA-TPX2.

As to `FC(F)(F)Oc1ccc2nccc(Oc3ccc(Nc4nnc(-c5ccc(Cl)cc5)c5ccccc45)cc3)c2c1` [compound 574], the figures for the IC50 on AuroraB and at AuroraA-TPX2 were 0.365 µM and 0.752 µM, respectively.

For the compound `Cc1csc(-c2nnc(Nc3ccc(Oc4ccnc5ccc(OC(F)(F)F)cc45)cc3)c3ccccc23)c1` [compound 575], the values for the IC50 at AuroraB and on AuroraA-TPX2 were 0.81 µM and 0.226 µM, respectively.

Turning to `COc1cnc2c(Sc3ccc(Nc4nnc(N5CCn6ccnc6C5)c5ccccc45)cc3)ccnc2c1` [compound 576], the IC50 at AuroraB is 0.026 µM; on AuroraA-TPX2 it was 0.077 µM.

For the compound `c1ccc(-c2nnc(Nc3ccc(Sc4ccnc5c4CCCN5)cc3)c3ccccc23)cc1` [compound 577], the IC50 came to 0.021 µM on AuroraB and 0.428 µM at AuroraA-TPX2.

As to `COc1cnc2c(Sc3ccc(Nc4nnc(N5CCc6sccc6C5)c5ccccc45)cc3)ccnc2c1` [compound 578], the IC50 was found to be 0.081 µM at AuroraB and 0.033 µM on AuroraA-TPX2.

`COc1cnc2c(Sc3ccc(Nc4nnc(N5CCn6ncnc6C5)c5ccccc45)cc3)ccnc2c1` [compound 579]: the IC50 at AuroraB was 0.032 µM; on AuroraA-TPX2, 0.228 µM.

For the compound `COc1cnc2c(Sc3ccc(Nc4nnc(N5CCN6CCCC[C@@H]6C5)c5ccccc45)cc3)ccnc2c1` [compound 580], the IC50 at AuroraB is 0.005 µM; on AuroraA-TPX2, 0.023 µM.

Turning to `COc1cc(OC)c2c(Sc3ccc(Nc4nnc(-c5ccccc5)c5ccccc45)cc3)ncnc2c1` [compound 581], the IC50 on AuroraB amounted to 0.236 µM; on AuroraA-TPX2 it was 1.13 µM.

With `COc1cnc2c(Sc3ccc(Nc4nnc(N5CCN6CCC[C@@H]6C5)c5ccccc45)cc3)ccnc2c1` [compound 582], the IC50 was 0.006 µM on AuroraB and 0.029 µM on AuroraA-TPX2.

As for `COc1cnc2c(Sc3ccc(Nc4nnc(-c5ccc(OC)nc5)c5ccccc45)cc3)ccnc2c1` [compound 583], the values for the IC50 on AuroraB and on AuroraA-TPX2 were 0.008 µM and 0.028 µM, respectively.

With `COc1cnc2c(Sc3ccc(Nc4nnc(N5CCN6CCCC[C@@H]6C5)c5ccccc45)cc3)ccnc2c1` [compound 584], the IC50 on AuroraB stood at 0.005 µM; at AuroraA-TPX2, 0.009 µM.

With `COc1cnc2c(Sc3ccc(Nc4nnc(N5CCN6CCCC[C@H]6C5)c5ccccc45)cc3)ccnc2c1` [compound 585], the values for the IC50 on AuroraB and at AuroraA-TPX2 were 0.006 µM and 0.036 µM, respectively.

For `COc1cnc2c(Oc3ccc(Nc4nnc(N5CC[C@H]6CCCC[C@@H]6C5)c5ccccc45)cc3)ccnc2c1` [compound 586], the IC50 amounted to 0.042 µM on AuroraB and 0.124 µM on AuroraA-TPX2.

Take `COc1cnc2c(Oc3ccc(Nc4nnc(N5CC[C@@H]6CCCC[C@H]6C5)c5ccccc45)cc3)ccnc2c1` [compound 587]: the values for the IC50 on AuroraB and on AuroraA-TPX2 were 0.033 µM and 0.217 µM, respectively.

Turning to `COc1cnc2c(Sc3ccc(Nc4nnc(-c5ccc(C)nc5)c5ccccc45)cc3)ccnc2c1` [compound 588], the figures for the IC50 at AuroraB and at AuroraA-TPX2 were 0.017 µM and 0.051 µM, respectively.

Take `Cc1csc(-c2nnc(Nc3ccc(Sc4ccnc5ccc(=O)[nH]c45)cc3)c3ccccc23)c1` [compound 589]: the IC50 on AuroraB stood at 0.008 µM; on AuroraA-TPX2 it was 0.019 µM.

Regarding `COc1cc(OC)c2c(Oc3ccc(Nc4nnc(-c5ccc(Cl)cc5)c5ccccc45)cc3)ncnc2c1` [compound 590], the IC50 came to 0.02 µM at AuroraB and 0.027 µM at AuroraA-TPX2.

As to `Clc1ccc(-c2nnc(Nc3ccc(Oc4ncnc5ccsc45)cc3)c3ccccc23)cc1` [compound 591], the figures for the IC50 at AuroraB and on AuroraA-TPX2 were 0.005 µM and 0.25 µM, respectively.

Take `N#Cc1ccc2nccc(Oc3ccc(Nc4nnc(-c5ccccc5)c5ccccc45)cc3)c2c1` [compound 592]: the IC50 on AuroraB is 0.022 µM; at AuroraA-TPX2 it was 0.338 µM.

`COCc1cc(-c2ccccc2)nnc1Nc1ccc(Oc2ccnc3cc(OC)cnc23)cc1` [compound 593]: the IC50 on AuroraB was determined as 0.082 µM; on AuroraA-TPX2 it was 0.526 µM.

With `CCc1cc(-c2ccc3c(c2)OCO3)nnc1Nc1ccc(Oc2ccnc3cc(OC)cnc23)cc1` [compound 594], the IC50 at AuroraB is 0.051 µM; on AuroraA-TPX2 it was 0.094 µM.

As for `CCc1cc(-c2ccc(C)cc2)nnc1Nc1ccc(Nc2ccnc3cc(OC)cnc23)cc1` [compound 595], the IC50 at AuroraB is 0.023 µM; on AuroraA-TPX2 it was 0.102 µM.

As for `CCc1cc(-c2ccc(C)cc2)nnc1Nc1ccc(Nc2ccnc3cc(C#N)ccc23)cc1` [compound 596], the IC50 turned out to be 0.058 µM at AuroraB and 0.16 µM on AuroraA-TPX2.

Turning to `COc1cc2nccc(Sc3ccc(Nc4nnc(-c5ccccc5)c5ccccc45)cc3)c2nc1OC` [compound 597], the IC50 is 0.681 µM on AuroraB and 0.246 µM at AuroraA-TPX2.
